Measured values as given in the supplement of paper PMC10307832.

Assays:
Assay in all cases: relative viability (nuclei count vs DMSO), 5 days (fraction); higher = more cells survive
EPLC-272H = test system: EPLC-272H
Outline: (§1)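 Medians of duplicate plates are given as relative viability. That measure is the nuclei count in treated wells divided by the count in vehicle wells. Counts were taken on 4× images of lung cancer cell lines in 1536-well plates, 5 days after pin-tool dosing the day after seeding with one drug alone or a fixed anchor-drug dose plus five library-drug doses (not always all listed) in √10 steps.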

NCI-H358 = test system: NCI-H358
Outline: as §1

HCC-827 = test system: HCC-827
Outline: as §1

LU99A = test system: LU99A
Outline: as §1

NCI-H2087 = test system: NCI-H2087
Outline: as §1

NCI-H2085 = test system: NCI-H2085
Outline: as §1

NCI-H1395 = test system: NCI-H1395
Outline: as §1

NCI-H1437 = test system: NCI-H1437
Outline: as §1

NCI-H1666 = test system: NCI-H1666
Outline: as §1

H3255 = test system: H3255
Outline: as §1

HOP-62 = test system: HOP-62
Outline: as §1

HCC-44 = test system: HCC-44
Outline: as §1

PC-3 [JPC-3] = test system: PC-3 [JPC-3]
Outline: as §1

NCI-H2342 = test system: NCI-H2342
Outline: as §1

NCI-H647 = test system: NCI-H647
Outline: as §1

201T = test system: 201T
Outline: as §1

COR-L 105 = test system: COR-L 105
Outline: as §1

BEN = test system: BEN
Outline: as §1

NCI-H1975 = test system: NCI-H1975
Outline: as §1

LOU-NH91 = test system: LOU-NH91
Outline: as §1

LCLC-97TM1 = test system: LCLC-97TM1
Outline: as §1

EKVX = test system: EKVX
Outline: as §1

SW 1573 = test system: SW 1573
Outline: as §1

NC(=O)Nc1cc(-c2cccc(F)c2)sc1C(=O)N[C@H]1CCCNC1 [AZD7762] + Nc1nc2[nH]cc(CCc3ccc(C(=O)N[C@@H](CCC(=O)O)C(=O)O)cc3)c2c(=O)[nH]1 [Pemetrexed] (partner 0.2 µM)
relative viability (EPLC-272H; first compound 0.01 µM): 0.321
relative viability (EPLC-272H; first compound 0.03162 µM): 0.214
relative viability (EPLC-272H; first compound 0.1 µM): 0.174
relative viability (EPLC-272H; first compound 0.3162 µM): 0.12
relative viability (EPLC-272H; first compound 1 µM): 0.0715
relative viability (NCI-H358; first compound 0.01 µM): 0.23
relative viability (NCI-H358; first compound 0.03162 µM): 0.188
relative viability (NCI-H358; first compound 0.1 µM): 0.19
relative viability (NCI-H358; first compound 0.3162 µM): 0.149
relative viability (NCI-H358; first compound 1 µM): 0.128
relative viability (HCC-827; first compound 0.01 µM): 0.301
relative viability (HCC-827; first compound 0.03162 µM): 0.257
relative viability (HCC-827; first compound 0.1 µM): 0.211
relative viability (HCC-827; first compound 0.3162 µM): 0.192
relative viability (HCC-827; first compound 1 µM): 0.148
relative viability (LU99A; first compound 0.01 µM): 0.204
relative viability (LU99A; first compound 0.03162 µM): 0.165
relative viability (LU99A; first compound 0.1 µM): 0.142
relative viability (LU99A; first compound 0.3162 µM): 0.151
relative viability (LU99A; first compound 1 µM): 0.109
relative viability (NCI-H2087; first compound 0.01 µM): 0.718
relative viability (NCI-H2087; first compound 0.03162 µM): 0.654
relative viability (NCI-H2087; first compound 0.1 µM): 0.714
relative viability (NCI-H2087; first compound 0.3162 µM): 0.66
relative viability (NCI-H2087; first compound 1 µM): 0.692
relative viability (NCI-H2085; first compound 0.01 µM): 0.932
relative viability (NCI-H2085; first compound 0.03162 µM): 0.918
relative viability (NCI-H2085; first compound 0.1 µM): 1
relative viability (NCI-H2085; first compound 0.3162 µM): 0.795
relative viability (NCI-H2085; first compound 1 µM): 0.673
relative viability (NCI-H1395; first compound 0.01 µM): 0.847
relative viability (NCI-H1395; first compound 0.03162 µM): 0.768
relative viability (NCI-H1395; first compound 0.1 µM): 0.641
relative viability (NCI-H1395; first compound 0.3162 µM): 0.401
relative viability (NCI-H1395; first compound 1 µM): 0.306
relative viability (NCI-H1437; first compound 0.01 µM): 0.298
relative viability (NCI-H1437; first compound 0.03162 µM): 0.261
relative viability (NCI-H1437; first compound 0.1 µM): 0.229
relative viability (NCI-H1437; first compound 0.3162 µM): 0.206
relative viability (NCI-H1437; first compound 1 µM): 0.172
relative viability (NCI-H1666; first compound 0.01 µM): 0.851
relative viability (NCI-H1666; first compound 0.03162 µM): 0.838
relative viability (NCI-H1666; first compound 0.1 µM): 0.739
relative viability (NCI-H1666; first compound 0.3162 µM): 0.594
relative viability (NCI-H1666; first compound 1 µM): 0.719
relative viability (H3255; first compound 0.01 µM): 0.549
relative viability (H3255; first compound 0.03162 µM): 0.61
relative viability (H3255; first compound 0.1 µM): 0.573
relative viability (H3255; first compound 0.3162 µM): 0.531
relative viability (H3255; first compound 1 µM): 0.477
relative viability (HOP-62; first compound 0.01 µM): 0.359
relative viability (HOP-62; first compound 0.03162 µM): 0.318
relative viability (HOP-62; first compound 0.1 µM): 0.264
relative viability (HOP-62; first compound 0.3162 µM): 0.248
relative viability (HOP-62; first compound 1 µM): 0.208
relative viability (HCC-44; first compound 0.01 µM): 0.608
relative viability (HCC-44; first compound 0.03162 µM): 0.548
relative viability (HCC-44; first compound 0.1 µM): 0.534
relative viability (HCC-44; first compound 0.3162 µM): 0.451
relative viability (HCC-44; first compound 1 µM): 0.358
relative viability (PC-3 [JPC-3]; first compound 0.01 µM): 0.626
relative viability (PC-3 [JPC-3]; first compound 0.03162 µM): 1.08
relative viability (PC-3 [JPC-3]; first compound 0.1 µM): 1.12
relative viability (PC-3 [JPC-3]; first compound 0.3162 µM): 0.859
relative viability (PC-3 [JPC-3]; first compound 1 µM): 0.688
relative viability (NCI-H2342; first compound 0.01 µM): 0.784
relative viability (NCI-H2342; first compound 0.03162 µM): 0.797
relative viability (NCI-H2342; first compound 0.1 µM): 0.78
relative viability (NCI-H2342; first compound 0.3162 µM): 0.755
relative viability (NCI-H2342; first compound 1 µM): 0.669
relative viability (NCI-H647; first compound 0.01 µM): 0.146
relative viability (NCI-H647; first compound 0.03162 µM): 0.128
relative viability (NCI-H647; first compound 0.1 µM): 0.108
relative viability (NCI-H647; first compound 0.3162 µM): 0.0887
relative viability (NCI-H647; first compound 1 µM): 0.0641
relative viability (201T; first compound 0.01 µM): 0.34
relative viability (201T; first compound 0.03162 µM): 0.293
relative viability (201T; first compound 0.1 µM): 0.307
relative viability (201T; first compound 0.3162 µM): 0.284
relative viability (201T; first compound 1 µM): 0.296
relative viability (COR-L 105; first compound 0.01 µM): 0.961
relative viability (COR-L 105; first compound 0.03162 µM): 1.11
relative viability (COR-L 105; first compound 0.1 µM): 0.913
relative viability (COR-L 105; first compound 0.3162 µM): 0.87
relative viability (COR-L 105; first compound 1 µM): 0.579
relative viability (BEN; first compound 0.01 µM): 0.804
relative viability (BEN; first compound 0.03162 µM): 0.902
relative viability (BEN; first compound 0.1 µM): 0.757
relative viability (BEN; first compound 0.3162 µM): 0.809
relative viability (BEN; first compound 1 µM): 0.606
relative viability (NCI-H1975; first compound 0.01 µM): 0.309
relative viability (NCI-H1975; first compound 0.03162 µM): 0.27
relative viability (NCI-H1975; first compound 0.1 µM): 0.254
relative viability (NCI-H1975; first compound 0.3162 µM): 0.221
relative viability (NCI-H1975; first compound 1 µM): 0.198
relative viability (LOU-NH91; first compound 0.01 µM): 0.437
relative viability (LOU-NH91; first compound 0.03162 µM): 0.306
relative viability (LOU-NH91; first compound 0.1 µM): 0.335
relative viability (LOU-NH91; first compound 0.3162 µM): 0.359
relative viability (LOU-NH91; first compound 1 µM): 0.349
relative viability (LCLC-97TM1; first compound 0.01 µM): 0.187
relative viability (LCLC-97TM1; first compound 0.03162 µM): 0.165
relative viability (LCLC-97TM1; first compound 0.1 µM): 0.17
relative viability (LCLC-97TM1; first compound 0.3162 µM): 0.139
relative viability (LCLC-97TM1; first compound 1 µM): 0.146
relative viability (EKVX; first compound 0.01 µM): 0.394
relative viability (EKVX; first compound 0.03162 µM): 0.346
relative viability (EKVX; first compound 0.1 µM): 0.248
relative viability (EKVX; first compound 0.3162 µM): 0.208
relative viability (EKVX; first compound 1 µM): 0.152
relative viability (SW 1573; first compound 0.01 µM): 0.796
relative viability (SW 1573; first compound 0.03162 µM): 0.778
relative viability (SW 1573; first compound 0.1 µM): 0.717
relative viability (SW 1573; first compound 0.3162 µM): 0.604
relative viability (SW 1573; first compound 1 µM): 0.272
